Data published in patent publication US5039679A, “Certain derivatives of 1,4-dihydro-5-isopropoxy-1,6-naphthyridine-3-carboxylic acid, pharmaceutical compositions containing them, and methods of using them” (Goedecke Aktiengesellschaft, priority 1989, dated 1991).
Structures can show the parent of a compound that is named as a salt. Where two headings read alike, the source gives them in different places.

Columns and labels:
[1] = pharmacological results, blood pressure lowering activity compared with other derivatives; assay type: in vivo; settings: in comparison with the other derivatives, in words
Text: The pharmacological results are even more marked in the case of the […] which were obtained according to the usual methods of racemate separation.

[2] = stress test, 2 weeks, heat or light (stability); assay type: physicochemical
Method: The hydrochloride is unstable even at ambient temperature and a stress test gave, after heating for 2 weeks at 45° C. in the dark, 10% of decomposition products and at ambient temperature in the light 30% of the compound had decomposed after 2 weeks.
In addition, it is also stable under the above-mentioned stress conditions (2 weeks at 45° C. in the dark and 2 weeks at ambient temperature in the light).

[3] = Solubility in water and artificial gastric juice (Table 1); assay type: physicochemical
[4] = system: Spontaneously Hypertensive Rats; experiment: blood pressure lowering after oral administration, Spontaneously Hypertensive Rats (Table 2); assay type: in vivo
Text: |Spontaneously Hypertensive Rats

[5] = animal experiments, commencement of activity; assay type: in vivo; settings: in words
[6] = Spontaneously Hypertensive Rats, 1 mg/kg PO, n = 6, 1 mg/kg

| degraded at 336 h ([2]; after heating for 2 weeks at 45° C. in the dark, read-out: decomposition products) | degraded at 336 h ([2]; ambient temperature in the light, after 2 weeks, read-out: decomposed compound) | stability ([2]; ambient temperature, in words) | Solubility in Artificial Gastric Juice [3] | solubility in water ([3]; in words) | solubility in water ([3]; water) | stability under stress conditions ([2]; 2 weeks at 45° C. in the dark and 2 weeks at ambient temperature in the light, in words) | SMILES | blood pressure lowering activity [1] | blood pressure lowering action [4, 6] | commencement of activity [5] | commencement of activity ([4]; rats, oral administration, fumarate compared with hydrochloride, in words) | blood pressure lowering action ([4]; rats, oral, fumarate compared with hydrochloride, in words) |
| --- | --- | --- | --- | --- | --- | --- | --- | --- | --- | --- | --- | --- |
|  |  |  |  |  |  |  | CC1=C(C(=O)OCCN(C)Cc2ccccc2)C(c2ccccc2C(F)(F)F)c2c(ccnc2OC(C)C)N1 (racemic) [(±), (±)-1,4-dihydro-5-isopropoxy-2-methyl-4-(2-trifluoromethylphenyl)-1,6-naphthyridine-3-carboxylic acid [2-(N-methyl-N-phenyl-methylamino)-ethyl] ester fumarate] | especially marked blood pressure lowering activity |  |  |  |  |
| 10% | 30% | unstable | 20% | good solubility | 20% |  | CC1=C(C(=O)OCCN(C)Cc2ccccc2)C(c2ccccc2C(F)(F)F)c2c(ccnc2OC(C)C)N1 (single isomer, unassigned) [Hydrochloride, reference compound] |  | 17% ± 4.4 | very rapid commencement of activity |  |  |
|  |  |  |  |  |  |  | CC1=C(C(=O)OCCN(C)Cc2ccccc2)C(c2ccccc2C(F)(F)F)c2c(ccnc2OC(C)C)N1 (single isomer, unassigned; (+)) [(+)-1,4-dihydro-5-isopropoxy-2-methyl-4-(2-trifluoro-methylphenyl)-1,6-naphthyridine-3-carboxylic acid [2-(N-methyl-N-phenylmethylamino)-ethyl] ester] | Especially active |  |  |  |  |
|  |  |  | 1.5% | considerable lower water solubility | 0.1% | stable | CC1=C(C(=O)OCCN(C)Cc2ccccc2)C(c2ccccc2C(F)(F)F)c2c(ccnc2OC(C)C)N1 (single isomer, unassigned; (+)) [Fumarate, (+)-1,4-dihydro-5-isopropoxy-2-methyl-4-(2-trifluoromethylphenyl)1,6-naphthyridine-3-carboxylic acid [2-(N-methyl-N-phenyl-methylamino)-ethyl] ester fumarate] |  | 26% ± 1.7 |  | somewhat later | substantially stronger |
